Results taken from patent US10294202B2, “Pyrrolidinones as herbicides” (FMC Corporation, priority 2013, dated 2019).

How the values were obtained:
[1] = tested on: foxtail, giant; test: Test C pre-/postemergence herbicide test; type: in vivo, Setaria faberii
Procedure, shortened: (§1)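 Two application timings ran in parallel with identically formulated test chemicals (non-phytotoxic solvent, surfactant included): spray on seeded loam–sand soil, and spray on emerged plants 2 to 18 cm high. Evaluation at 13 to 15 days compared each species with controls, rated from 0 up to 100.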

[2] = tested on: blackgrass; test: Test C pre-/postemergence herbicide test; type: in vivo, Alopecurus myosuroides
Procedure, shortened: as §1

[3] = tested on: giant foxtail; test: Test A pre-/postemergence herbicide test; type: in vivo, Setaria faberii
Procedure, shortened: (§2)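 Directed soil spray to seeded pots (preemergence) or spray onto one- to two-leaf seedlings 2–10 cm tall (postemergence); loam/sand substrate throughout. Evaluated visually after about 10 days against untreated plants, 0 = no effect, 100 = complete control.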

[4] = tested on: sedge, umbrella; test: Test B flooded paddy test; type: in vivo, Cyperus difformis; conditions: Flood, scale of 0 to 100 where 0 is no effect and 100 is complete control
Procedure, shortened: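 Visual ratings from 0, meaning no effect, up to 100, meaning complete control, were made by comparison with untreated controls 13 to 15 days after treatment. Test compounds went straight into floodwater standing 3 cm over the soil of pots holding 2-leaf seedlings.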

[5] = tested on: nutsedge, yellow; test: Test C pre-/postemergence herbicide test; type: in vivo, Cyperus esculentus
Procedure, shortened: as §1

[6] = tested on: crabgrass, large; test: Test C pre-/postemergence herbicide test; type: in vivo, Digitaria sanguinalis
Procedure, shortened: as §1

[7] = tested on: ryegrass, Italian; test: Test C pre-/postemergence herbicide test; type: in vivo, Lolium multiflorum
Procedure, shortened: as §1

[8] = tested on: wheat; test: Test A pre-/postemergence herbicide test; type: in vivo, Triticum aestivum
Procedure, shortened: as §2

[9] = tested on: pigweed; test: Test A pre-/postemergence herbicide test; type: in vivo, Amaranthus retroflexus
Procedure, shortened: as §2

[10] = tested on: ragweed; test: Test C pre-/postemergence herbicide test; type: in vivo, Ambrosia elatior
Procedure, shortened: as §1

[11] = tested on: johnsongrass; test: Test C pre-/postemergence herbicide test; type: in vivo, Sorghum halepense
Procedure, shortened: as §1

[12] = Postemergence, 31 g ai/ha, scale 0 to 100 (0 no effect, 100 complete control)
[13] = Postemergence, 62 g ai/ha, scale 0 (no effect) to 100 (complete control)
[14] = Postemergence, 125 g ai/ha, scale 0 to 100 (0 no effect, 100 complete control)
[15] = Postemergence, 250 g ai/ha, scale 0 to 100 (0 no effect, 100 complete control)
[16] = Preemergence, 62 g ai/ha, scale 0 to 100 (0 no effect, 100 complete control)
[17] = Preemergence, 125 g ai/ha, scale 0 to 100
[18] = Preemergence, 31 g ai/ha, scale 0 to 100
[19] = Postemergence, 125 g ai/ha, visual rating on 0 to 100 scale (0 no effect, 100 complete control), approx. 10 days
[20] = Postemergence, 500 g ai/ha, 0 to 100 scale (0 no effect, 100 complete control)
[21] = Preemergence, 125 g ai/ha, 0 to 100 scale where 0 is no effect and 100 is complete control
[22] = Preemergence, 500 g ai/ha, visual rating on 0 to 100 scale (0 no effect, 100 complete control)
[23] = Postemergence, 31 g ai/ha, scale 0 (no effect) to 100 (complete control)
[24] = Postemergence, 62 g ai/ha, scale 0 to 100 (0 no effect, 100 complete control)
[25] = Preemergence, 62 g ai/ha, scale 0 to 100
[26] = Preemergence, 125 g ai/ha, scale 0 to 100 (0 no effect, 100 complete control)
[27] = Preemergence, 31 g ai/ha, scale 0 to 100 (0 no effect, 100 complete control)
[28] = Postemergence, 125 g ai/ha, 0 to 100 scale, 0 no effect, 100 complete control
[29] = Preemergence, 125 g ai/ha, visual rating on 0 to 100 scale (0 no effect, 100 complete control)
[30] = preemergence, 500 g ai/ha, 0 to 100 scale
[31] = Preemergence, 31 g ai/ha, scale 0 to 100, 0 is no effect and 100 is complete control

O=C1NCC(c2ccc(F)c(F)c2)C1C(=O)Nc1ccc(F)c(F)c1F (centres unmarked) [Compound 346]
75: Plant response rating, Blackgrass [2, 17] | Plant response rating, Crabgrass, Large [6, 15]
90: Foxtail, Giant plant response rating [1, 16] | Plant response rating, Foxtail, Giant [1, 18] | Plant response rating, Foxtail, Giant [3, 20] | Plant response rating, Foxtail, Giant [3, 21] | Foxtail, Giant plant response rating [3, 22]
35: Ragweed plant response rating [10, 16] | Plant response rating, Ragweed [10, 17]
100: Plant response rating (scale of 0 to 100), Crabgrass, Large ([6]; Preemergence, 250 g ai/ha) | Plant response rating, Johnsongrass [11, 12]
50: Plant response rating, Ragweed [10, 18]
85: Plant response rating, Foxtail, Giant [1, 15] | Plant response rating (scale of 0 to 100), Blackgrass ([2]; Preemergence, 250 g ai/ha)
30: Pigweed plant response rating [9, 22]
98: Plant response rating, Foxtail, Giant [1, 17] | Plant response rating (scale of 0 to 100), Foxtail, Giant ([1]; Preemergence, 250 g ai/ha) | Plant response rating, Crabgrass, Large [6, 17]
10: Ryegrass, Italian plant response rating [7, 16]
40: Plant response rating, Foxtail, Giant [1, 14]
60: Blackgrass plant response rating [2, 16] | Plant response rating, Crabgrass, Large [6, 14] | Plant response rating (scale of 0 to 100), Johnsongrass ([11]; Preemergence, 250 g ai/ha)
0: Plant response rating, Foxtail, Giant [1, 13] | Plant response rating, Blackgrass [2, 12] | Plant response rating, Blackgrass [2, 13] | Plant response rating, Blackgrass [2, 14] | Plant response rating, Sedge, Umbrella ([4]; 1000 g ai/ha) | Plant response rating, Nutsedge, Yellow [5, 12] | Plant response rating, Nutsedge, Yellow [5, 13] | Plant response rating, Nutsedge, Yellow [5, 14] | Nutsedge, Yellow plant response rating [5, 16] | Plant response rating, Nutsedge, Yellow [5, 17] | Plant response rating (scale of 0 to 100), Nutsedge, Yellow ([5]; Preemergence, 250 g ai/ha) | Plant response rating, Nutsedge, Yellow [5, 18] | Plant response rating, Crabgrass, Large [6, 12] | Plant response rating, Ryegrass, Italian [7, 12] | Plant response rating, Ryegrass, Italian [7, 13] | Plant response rating, Ryegrass, Italian [7, 14] | Plant response rating, Ryegrass, Italian [7, 15] | Plant response rating, Ryegrass, Italian [7, 18] | Plant response rating, Wheat [8, 19] | Plant response rating, Pigweed [9, 19] | Plant response rating, Ragweed [10, 12] | Plant response rating, Ragweed [10, 13] | Plant response rating, Ragweed [10, 14] | Plant response rating, Johnsongrass [11, 13] | Plant response rating, Johnsongrass [11, 14] | Plant response rating, Johnsongrass [11, 15] | Johnsongrass plant response rating [11, 16] | Plant response rating, Johnsongrass [11, 18]
5: Plant response rating, Blackgrass [2, 15] | Plant response rating, Nutsedge, Yellow [5, 15] | Plant response rating, Ryegrass, Italian [7, 17]
25: Plant response rating, Crabgrass, Large [6, 13]
80: Plant response rating, Foxtail, Giant [3, 19]
95: Crabgrass, Large plant response rating [6, 16] | Plant response rating, Crabgrass, Large [6, 18]
20: Plant response rating, Foxtail, Giant [1, 12] | Plant response rating, Blackgrass [2, 18] | Plant response rating, Pigweed [9, 21] | Plant response rating, Ragweed [10, 15] | Plant response rating, Johnsongrass [11, 17]

O=C1NCC(c2ccc(F)c(Cl)c2)C1C(=O)Nc1ccccc1F (centres unmarked) [Compound 60]
30: Plant response rating, Foxtail, Giant [1, 14]
70: Foxtail, Giant plant response rating [1, 27]
85: Plant response rating, Foxtail, Giant [1, 25] | Crabgrass, Large plant response rating [6, 27]
50: Plant response rating, Crabgrass, Large [6, 24] | Plant response rating, Wheat [8, 20]
15: Plant response rating, Foxtail, Giant [1, 24] | Plant response rating, Nutsedge, Yellow [5, 26]
20: Plant response rating, Crabgrass, Large [6, 23] | Plant response rating, Johnsongrass [11, 25] | Plant response rating, Johnsongrass [11, 26]
95: Plant response rating, Crabgrass, Large [6, 25] | Plant response rating, Crabgrass, Large [6, 26]
5: Plant response rating, Nutsedge, Yellow [5, 14] | Plant response rating, Johnsongrass [11, 23] | Plant response rating, Johnsongrass [11, 24] | Plant response rating, Johnsongrass [11, 14]
80: Plant response rating, Foxtail, Giant [3, 28] | Plant response rating, Foxtail, Giant [3, 20]
35: Plant response rating, Ragweed [10, 14]
0: Plant response rating, Foxtail, Giant [1, 23] | Plant response rating, Blackgrass [2, 23] | Plant response rating, Blackgrass [2, 24] | Plant response rating, Blackgrass [2, 14] | Blackgrass plant response rating [2, 27] | Plant response rating, Nutsedge, Yellow [5, 23] | Plant response rating, Nutsedge, Yellow [5, 24] | Plant response rating, Nutsedge, Yellow [5, 25] | Plant response rating, Ryegrass, Italian [7, 23] | Plant response rating, Ryegrass, Italian [7, 24] | Plant response rating, Ryegrass, Italian [7, 14] | Plant response rating, Ryegrass, Italian [7, 25] | Plant response rating, Ryegrass, Italian [7, 26] | Plant response rating, Wheat [8, 28] | Wheat plant response rating [8, 29] | Plant response rating, Wheat [8, 30] | Plant response rating, Pigweed [9, 28] | Plant response rating, Pigweed [9, 20] | Pigweed plant response rating [9, 29] | Plant response rating, Pigweed [9, 30]
60: Plant response rating, Sedge, Umbrella ([4]; 250 g ai/ha)
10: Plant response rating, Blackgrass [2, 25] | Plant response rating, Ragweed [10, 23] | Plant response rating, Ragweed [10, 25]
40: Plant response rating, Blackgrass [2, 26]
90: Plant response rating, Foxtail, Giant [1, 26] | Foxtail, Giant plant response rating [3, 29] | Plant response rating, Foxtail, Giant [3, 30]
75: Plant response rating, Crabgrass, Large [6, 14]
25: Plant response rating, Ragweed [10, 24] | Plant response rating, Ragweed [10, 26]

CC(C)c1cccc(C2CNC(=O)C2C(=O)Nc2ccccc2F)c1 (centres unmarked) [Compound 318]
60: Plant response rating (scale of 0 to 100), Johnsongrass ([11]; Preemergence, 250 g ai/ha)
75: Plant response rating, Foxtail, Giant [1, 17]
30: Plant response rating, Blackgrass [2, 17] | Plant response rating, Wheat [8, 20]
20: Plant response rating, Wheat [8, 19] | Plant response rating, Pigweed [9, 19] | Plant response rating, Pigweed [9, 20] | Pigweed plant response rating [9, 22]
45: Plant response rating (scale of 0 to 100), Blackgrass ([2]; Preemergence, 250 g ai/ha) | Plant response rating, Johnsongrass [11, 17]
40: Plant response rating, Foxtail, Giant [3, 19]
95: Crabgrass, Large plant response rating [6, 31]
10: Foxtail, Giant plant response rating [1, 31]
0: Blackgrass plant response rating [2, 31] | Blackgrass plant response rating [2, 16] | Plant response rating, Sedge, Umbrella ([4]; 500 g ai/ha) | Nutsedge, Yellow plant response rating [5, 31] | Nutsedge, Yellow plant response rating [5, 16] | Plant response rating, Nutsedge, Yellow [5, 17] | Plant response rating (scale of 0 to 100), Nutsedge, Yellow ([5]; Preemergence, 250 g ai/ha) | Ryegrass, Italian plant response rating [7, 16] | Plant response rating, Ryegrass, Italian [7, 17] | Plant response rating, Pigweed [9, 21] | Ragweed plant response rating [10, 16] | Plant response rating, Ragweed [10, 17] | Johnsongrass plant response rating [11, 31] | Johnsongrass plant response rating [11, 16]
90: Plant response rating (scale of 0 to 100), Foxtail, Giant ([1]; Preemergence, 250 g ai/ha) | Plant response rating, Foxtail, Giant [3, 21] | Foxtail, Giant plant response rating [3, 22]
98: Crabgrass, Large plant response rating [6, 16] | Plant response rating, Crabgrass, Large [6, 17]
100: Plant response rating (scale of 0 to 100), Crabgrass, Large ([6]; Preemergence, 250 g ai/ha)
70: Foxtail, Giant plant response rating [1, 16] | Plant response rating, Foxtail, Giant [3, 20]
